Molecular target: T1, GenK (Corynebacterium glutamicum, UniProt Q8NLB7)
T1 construct: full-length, native gene in intact C. glutamicum RES167 cells; mutants expressed from pXMJ19 in RES167 delta-genK; untagged as far as told; 12 predicted transmembrane helices
Assay: inhibition of […]-gentisate uptake in RES167 cells
Type: cell-based

T1 sequence (Q8NLB7 whole entry): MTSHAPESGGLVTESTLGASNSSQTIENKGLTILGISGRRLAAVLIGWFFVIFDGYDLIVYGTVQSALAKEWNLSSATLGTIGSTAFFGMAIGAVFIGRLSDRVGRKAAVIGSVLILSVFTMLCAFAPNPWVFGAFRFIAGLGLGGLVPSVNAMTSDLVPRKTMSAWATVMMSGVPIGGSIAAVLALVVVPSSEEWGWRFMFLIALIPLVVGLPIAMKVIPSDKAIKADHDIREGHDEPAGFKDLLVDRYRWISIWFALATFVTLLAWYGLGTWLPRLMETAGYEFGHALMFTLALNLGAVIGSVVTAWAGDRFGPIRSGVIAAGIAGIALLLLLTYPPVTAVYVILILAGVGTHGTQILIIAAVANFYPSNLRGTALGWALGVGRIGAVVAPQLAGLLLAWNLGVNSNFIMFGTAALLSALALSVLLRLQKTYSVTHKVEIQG

Row | inhibition at 800 µM | Compound
1 | 40 to 60% | O=C(O)c1ccc(O)c(O)c1 [protocatechuate]
2 | 94% | O=C(O)c1cccc(O)c1 [3-hydroxybenzoate]
3 | 40 to 60% | O=C(O)c1ccccc1 [benzoate]

Row | Compound | inhibition at 800 µM
4 | Oc1ccccc1O [catechol] | 40 to 60%
